Source: patent US9409884B2 (Rigel Pharmaceuticals, Inc., priority 2012, dated 2016)

These molecules were tested against AMPK (assay: AMPK activation, enzyme-linked immunosorbent assay). Settings: Table 10, compounds of Table 3.
Format: biochemical
In short: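 AMPK activation by test compounds was measured by enzyme-linked immunosorbent assay.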

Compound	EC50 [µM]
N#Cc1ccc(CN2CCC(NC(=O)c3ccc(C(=O)N4CCN(Cc5ccc(Cl)cc5)CC4)cc3)CC2)cc1 [Compound 3-28, 4-(4-(4-chlorobenzyl)piperazine-1-carbonyl)-N-(1-(4-cyanobenzyl)piperidin-4-yl)benzamide]	< 0.1
N#Cc1ccc(CN2CCC(NC(=O)c3ccc(C(=O)N4CCN(c5ccc(Cl)cc5)CC4)cc3)CC2)cc1 [Compound 3-29, 4-(4-(4-chlorophenyl)piperazine-1-carbonyl)-N-(1-(4-cyanobenzyl)piperidin-4-yl)benzamide]	10 to 100
N#Cc1ccc(CN2CCC(NC(=O)c3ccc(C(=O)N4CCN(c5ccc(C(F)(F)F)cn5)CC4)cc3)CC2)cc1 [Compound 3-30, N-(1-(4-cyanobenzyl)piperidin-4-yl)-4-(4-(5-(trifluoromethyl)pyridin-2-yl)piperazine-1-carbonyl)benzamide]	< 0.1
N#Cc1ccc(CN2CCC(NC(=O)c3ccc(C(=O)NC4CCN(Cc5ccc(C(F)(F)F)cc5)CC4)cc3)CC2)cc1 [Compound 3-31, N^1-(1-(4-cyanobenzyl)piperidin-4-yl)-N^4-(1-(4-(trifluoromethyl)benzyl)piperidin-4-yl)terephthalamide]	< 0.1
N#Cc1ccc(CN2CCC(NC(=O)c3ccc(C(=O)NC4CCN(c5ccccc5)CC4)cc3)CC2)cc1 [Compound 3-32, N^1-(1-(4-cyanobenzyl)piperidin-4-yl)-N^4-(1-phenylpiperidin-4-yl)terephthalamide]	10 to 100
N#Cc1ccc(CN2CCC(NC(=O)c3ccc(C(=O)NC4CCN(Cc5ccccc5)CC4)cc3)CC2)cc1 [Compound 3-33, N^1-(1-benzylpiperidin-4-yl)-N^4-(1-(4-cyanobenzyl)piperidin-4-yl)terephthalamide]	10 to 100
N#Cc1ccc(CN2CCC(NC(=O)c3ccc4c(c3)CN(Cc3ccc(F)cc3)CC4)CC2)cc1 [Compound 3-34, N-(1-(4-cyanobenzyl)piperidin-4-yl)-2-(4-fluorobenzyl)-1,2,3,4-tetrahydroisoquinoline-7-carboxamide]	< 0.1
O=C(NC1CCN(Cc2cccnc2)CC1)c1ccc2c(c1)CN(Cc1ccc(F)cc1)CC2 [Compound 3-35, 2-(4-fluorobenzyl)-N-(1-(pyridin-3-ylmethyl)piperidin-4-yl)-1,2,3,4-tetrahydroisoquinoline-7-carboxamide]	1 to 10
O=C(NC1CCN(Cc2ccc(C(F)(F)F)cc2)CC1)c1ccc2c(c1)CN(Cc1ccc(F)cc1)CC2 [Compound 3-36, 2-(4-fluorobenzyl)-N-(1-(4-(trifluoromethyl)benzyl)piperidin-4-yl)-1,2,3,4-tetrahydroisoquinoline-7-carboxamide]	0.1 to 1
N#Cc1ccc(CN2CCC(NC(=O)c3ccc4c(c3)CN(Cc3ccc(C#N)cc3)CC4)CC2)cc1 [Compound 3-37, 2-(4-cyanobenzyl)-N-(1-(4-cyanobenzyl)piperidin-4-yl)-1,2,3,4-tetrahydroisoquinoline-7-carboxamide]	< 0.1
N#Cc1ccc(CN2CCc3ccc(C(=O)NC4CCN(Cc5cccnc5)CC4)cc3C2)cc1 [Compound 3-38, 2-(4-cyanobenzyl)-N-(1-(pyridin-3-ylmethyl)piperidin-4-yl)-1,2,3,4-tetrahydroisoquinoline-7-carboxamide]	< 0.1
N#Cc1ccc(CN2CCc3ccc(C(=O)NC4CCN(Cc5ccc(C(F)(F)F)cc5)CC4)cc3C2)cc1 [Compound 3-39, 2-(4-cyanobenzyl)-N-(1-(4-(trifluoromethyl)benzyl)piperidin-4-yl)-1,2,3,4-tetrahydroisoquinoline-7-carboxamide]	1 to 10

Same assay, conditions: Table 11, compounds of Table 4

Compound	EC50 [µM]
N#Cc1ccc(CN2CCC(NC(=O)c3ccc(C(=O)N4CCN(Cc5ccc(C#N)cc5)CC4)cn3)CC2)cc1 [Compound 4-1, 5-(4-(4-cyanobenzyl)piperazine-1-carbonyl)-N-(1-(4-cyanobenzyl)piperidin-4-yl)picolinamide]	< 0.5
N#Cc1ccc(CN2CCC(NC(=O)c3ccc(C(=O)N4CCN(Cc5ccc(F)cc5)CC4)cn3)CC2)cc1 [Compound 4-2, N-(1-(4-cyanobenzyl)piperidin-4-yl)-5-(4-(4-fluorobenzyl)piperazine-1-carbonyl)picolinamide]	< 0.5
N#Cc1ccc(CN2CCC(NC(=O)c3ccc(C(=O)N4CCN(Cc5ccc(C(F)(F)F)cc5)CC4)cn3)CC2)cc1 [Compound 4-3, N-(1-(4-cyanobenzyl)piperidin-4-yl)-5-(4-(4-(trifluoromethyl)benzyl)piperazine-1-carbonyl)picolinamide]	< 0.5
O=C(N[C@H]1CCN(Cc2ccc(F)cc2)C1)c1ccc(C(=O)N2CCN(c3ccc(Cl)cc3)CC2)cn1 [Compound 4-4, (S)-5-(4-(4-chlorophenyl)piperazine-1-carbonyl)-N-(1-(4-fluorobenzyl)pyrrolidin-3-yl)picolinamide]	1 to 5
O=C(N[C@H]1CCN(Cc2ccncc2)C1)c1ccc(C(=O)N2CCN(c3ccc(Cl)cc3)CC2)cn1 [Compound 4-5, (S)-5-(4-(4-chlorophenyl)piperazine-1-carbonyl)-N-(1-(pyridin-4-ylmethyl)pyrrolidin-3-yl)picolinamide]	1 to 5
N#Cc1ccc(CN2CC[C@H](NC(=O)c3ccc(C(=O)N4CCN(c5ccc(Cl)cc5)CC4)cn3)C2)cc1 [Compound 4-6, (S)-5-(4-(4-chlorophenyl)piperazine-1-carbonyl)-N-(1-(4-cyanobenzyl)pyrrolidin-3-yl)picolinamide]	0.5 to 1
O=C(NC1CCN(Cc2ccc(Cl)cc2)C1)c1ccc(C(=O)N2CCN(c3ccc(Cl)cc3)CC2)cn1 (stereo not drawn) [Compound 4-7, N-(1-(4-chlorobenzyl)pyrrolidin-3-yl)-5-(4-(4-chlorophenyl)piperazine-1-carbonyl)picolinamide]	1 to 5
O=C(NC1CCN(Cc2ccc(C(F)(F)F)cc2)C1)c1ccc(C(=O)N2CCN(c3ccc(Cl)cc3)CC2)cn1 (stereo not drawn) [Compound 4-8, 5-(4-(4-chlorophenyl)piperazine-1-carbonyl)-N-(1-(4-(trifluoromethyl)benzyl)pyrrolidin-3-yl)picolinamide]	1 to 5
N#Cc1ccc(CN2CCC(NC(=O)c3ccc(C(=O)N4CCN(c5ccc(S(=O)(=O)N6CCCC6)cc5)CC4)nc3)CC2)cc1 [Compound 4-9, N-(1-(4-cyanobenzyl)piperidin-4-yl)-6-(4-(4-(pyrrolidin-1-ylsulfonyl)phenyl)piperazine-1-carbonyl)nicotinamide]	0.5 to 1
CC(C)S(=O)(=O)c1ccc(N2CCN(C(=O)c3ccc(C(=O)NC4CCN(Cc5ccc(OC(F)(F)F)cc5)C[C@H]4F)cn3)CC2)cc1 (stereo partly drawn) [Compound 4-11, N-((3,4-trans)-3-fluoro-1-(4-(trifluoromethoxy)benzyl)piperidin-4-yl)-6-(4-(4-(isopropylsulfonyl)phenyl)piperazine-1-carbonyl)nicotinamide]	< 0.5
N#Cc1ccc(CN2CCC(NC(=O)c3ccc(C(=O)N4CCN(c5ccc(C(=O)C6CC6)cc5)CC4)nc3)[C@H](F)C2)cc1 (stereo partly drawn) [Compound 4-12, N-((3,4-trans)-1-(4-cyanobenzyl)-3-fluoropiperidin-4-yl)-6-(4-(4-(cyclopropanecarbonyl)phenyl)piperazine-1-carbonyl)nicotinamide]	< 0.5
CS(=O)(=O)c1ccc(CN2CCN(C(=O)c3ccc(C(=O)NC4CCN(Cc5ccc(C#N)cc5)CC4F)cn3)CC2)cc1 (stereo not drawn) [Compound 4-13, N-((3,4-trans)-1-(4-cyanobenzyl)-3-fluoropiperidin-4-yl)-6-(4-(4-(methylsulfonyl)benzyl)piperazine-1-carbonyl)nicotinamide]	1 to 5
O=C(NC1CCN(Cc2ccc(OC(F)(F)F)cc2)C[C@H]1F)c1ccc(C(=O)N2CCN(c3ccc(S(=O)(=O)N4CCCC4)cc3)CC2)nc1 (stereo partly drawn) [Compound 4-14, N-((3,4-trans)-3-fluoro-1-(4-(trifluoromethoxy)benzyl)piperidin-4-yl)-6-(4-(4-(pyrrolidin-1-ylsulfonyl)phenyl)piperazine-1-carbonyl)nicotinamide]	< 0.5
O=C(NC1CCN(Cc2ccc(OC(F)(F)F)cc2)C[C@H]1F)c1ccc(C(=O)N2CCN(Cc3ccc(S(=O)(=O)N4CCCC4)cc3)CC2)nc1 (stereo partly drawn) [Compound 4-15, N-((3,4-trans)-3-fluoro-1-(4-(trifluoromethoxy)benzyl)piperidin-4-yl)-6-(4-(4-(pyrrolidin-1-ylsulfonyl)benzyl)piperazine-1-carbonyl)nicotinamide]	< 0.5
N#Cc1ccc(CN2CCC(NC(=O)c3ccc(C(=O)N4CCN(Cc5ccc(S(=O)(=O)N6CCCC6)cc5)CC4)nc3)CC2)cc1 [Compound 4-16, N-(1-(4-cyanobenzyl)piperidin-4-yl)-6-(4-(4-(pyrrolidin-1-ylsulfonyl)benzyl)piperazine-1-carbonyl)nicotinamide]	< 0.5
CCNS(=O)(=O)c1ccc(CN2CCN(C(=O)c3ccc(C(=O)NC4CCN(Cc5ccc(C#N)cc5)CC4)cn3)CC2)cc1 [Compound 4-17, N-(1-(4-cyanobenzyl)piperidin-4-yl)-6-(4-(4-(N-ethylsulfamoyl)benzyl)piperazine-1-carbonyl)nicotinamide]	1 to 5

Same assay, conditions: Table 12, compounds of Table 5

Compound	EC50 [µM]
COc1ccc(CN2CCC(Oc3ccc(C(=O)NC4CCN(Cc5ccccc5)CC4)cc3Cl)CC2)cc1 [Compound 5-1, N-(1-benzylpiperidin-4-yl)-3-chloro-4-(1-(4-methoxybenzyl)piperidin-4-yloxy)benzamide]	< 1
COc1cc(C(=O)NC2CCN(Cc3ccccc3)CC2)ccc1OC1CCN(Cc2ccccc2)CC1 [Compound 5-2, N-(1-benzylpiperidin-4-yl)-4-(1-benzylpiperidin-4-yloxy)-3-methoxybenzamide]	< 1
Cn1cncc1CN1CCC(Oc2ccc(C(=O)NC3CCN(Cc4ccccc4)CC3)cc2)CC1 [Compound 5-4, N-(1-benzylpiperidin-4-yl)-4-(1-((1-methyl-1H-imidazol-5-yl)methyl)piperidin-4-yloxy)benzamide]	> 100
Cn1cncc1CN1CCC(Oc2ccc(C(=O)NC3CCN(Cc4ccccc4)CC3)cc2Cl)CC1 [Compound 5-5, N-(1-benzylpiperidin-4-yl)-3-chloro-4-(1-((1-methyl-1H-imidazol-5-yl)methyl)piperidin-4-yloxy)benzamide]	50 to 100
O=C(NC1CCN(Cc2ccccc2)CC1)c1ccc(OC2CCN(Cc3ccncc3)CC2)c(Cl)c1 [Compound 5-6, N-(1-benzylpiperidin-4-yl)-3-chloro-4-(1-(pyridin-4-ylmethyl)piperidin-4-yloxy)benzamide]	< 1
